Measurements as given in patent publication US11325938B2, “CD73 inhibitors” (ORIC Pharmaceuticals, Inc., priority 2018, dated 2022).

Molecular target: CD73 (Homo sapiens (Human), UniProt P21589)
Assay: Biochemical assay: inhibition of CD73 activity (AMP hydrolysis, Malachite Green readout)
Conditions: CD73 0.3208 nM, AMP 15 μM, 25 mM Tris-HCl pH 7.4, RT, absorbance 620 nm
How it was run: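 Human CD73 (320 pM final) preincubated 15 min at RT with compounds (10-point ½-log titration from 100 μM, duplicates) in 25 mM Tris-HCl pH 7.4, 5 mM MgCl2, 0.01% Brij-35, 0.01% BSA. 15 μM AMP added, 10 min at RT; released phosphate read by Malachite Green absorbance; IC50 determined.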

CD73, sequence (P21589 27-574): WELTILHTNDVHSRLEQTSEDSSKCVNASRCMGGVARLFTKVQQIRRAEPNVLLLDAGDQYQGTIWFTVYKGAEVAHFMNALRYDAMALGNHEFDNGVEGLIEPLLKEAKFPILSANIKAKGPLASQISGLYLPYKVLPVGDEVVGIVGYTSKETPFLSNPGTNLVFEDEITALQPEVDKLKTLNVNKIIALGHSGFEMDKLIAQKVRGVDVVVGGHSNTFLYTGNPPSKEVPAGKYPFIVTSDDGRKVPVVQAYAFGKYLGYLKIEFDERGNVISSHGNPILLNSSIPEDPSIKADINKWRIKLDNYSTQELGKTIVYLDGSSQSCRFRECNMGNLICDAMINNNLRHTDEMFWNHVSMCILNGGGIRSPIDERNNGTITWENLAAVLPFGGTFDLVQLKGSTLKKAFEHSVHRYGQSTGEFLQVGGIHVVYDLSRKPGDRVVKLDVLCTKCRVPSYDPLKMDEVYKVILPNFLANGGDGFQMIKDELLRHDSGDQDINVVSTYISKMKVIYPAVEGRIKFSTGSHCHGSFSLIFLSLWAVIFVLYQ

| IC50 | Structure (SMILES) |
| --- | --- |
| ≤ 100 nM | C[C@@](CS(C)(=O)=O)(OC[C@H]1O[C@@H](n2ncc3c(NC4CCCC4)nc(Cl)nc32)[C@H](O)[C@@H]1O)P(=O)(O)O [Example 74, ((R)-2-(((2R,3S,4R,5R)-5-(6-chloro-4-(cyclopentylamino)-1H-pyrazolo[3,4-d]pyrimidin-1-yl)-3,4-dihydroxytetrahydrofuran-2-yl)methoxy)-1-(methylsulfonyl)propan-2-yl)phosphonic acid] |
| ≤ 100 nM | C[C@@](CO)(OC[C@H]1O[C@@H](n2nnc3c(NC4CCCC4)cc(Cl)nc32)[C@H](O)[C@@H]1O)P(=O)(O)O [Example 139, ((R)-2-(((2R,3S,4R,5R)-5-(5-chloro-7-(cyclopentylamino)-3H-[1,2,3]triazolo[4,5-b]pyridin-3-yl)-3,4-dihydroxytetrahydrofuran-2-yl)methoxy)-1-hydroxypropan-2-yl)phosphonic acid] |
| ≤ 100 nM | O=P(O)(O)[C@H](CO)OC[C@H]1O[C@@H](n2nnc3c(NC4CCCC4)cc(Cl)nc32)[C@H](O)[C@@H]1O [Example 144, ((R)-1-(((2R,3S,4R,5R)-5-(5-chloro-7-(cyclopentylamino)-3H-[1,2,3]triazolo[4,5-b]pyridin-3-yl)-3,4-dihydroxytetrahydrofuran-2-yl)methoxy)-2-hydroxyethyl)phosphonic acid] |
| ≤ 100 nM | O=P(O)(O)COC[C@H]1O[C@@H](n2nnc3c(NCc4cccc(Cl)c4)cc(Cl)nc32)[C@H](O)[C@@H]1O [Example 22, ((((2R,3S,4R,5R)-5-(5-chloro-7-((3-chlorobenzyl)amino)-3H-[1,2,3]triazolo[4,5-b]pyridin-3-yl)-3,4-dihydroxytetrahydrofuran-2-yl)methoxy)methyl)phosphonic acid] |
| ≤ 100 nM | CC(CO)(OC[C@H]1O[C@@H](n2nnc3c(NC4CCCC4)nc(Cl)nc32)[C@H](O)[C@@H]1O)P(=O)(O)O (stereo partly drawn) [Example 67, (2-(((2R,3S,4R,5R)-5-(5-chloro-7-(cyclopentylamino)-3H-[1,2,3]triazolo[4,5-d]pyrimin-3-yl)-3,4-dihydroxytetrahydrofuran-2-yl)methoxy)-1-hydroxypropan-2-yl)phosphonic acid] |
| ≤ 100 nM | C[C@@H](OC[C@H]1O[C@@H](n2ncc3c(NC4CCCC4)nc(Cl)nc32)[C@H](O)[C@@H]1O)P(=O)(O)O [Example 32, ((S)-1-(((2R,3S,4R,5R)-5-(6-chloro-4-(cyclopentylamino)-1H-pyrazolo[3,4-d]pyrimidin-1-yl)-3,4-dihydroxytetrahydrofuran-2-yl)methoxy)ehtyl)phosphonic acid] |
| ≤ 100 nM | C[C@](CO)(OC[C@H]1O[C@@H](n2ncc3c(NC4CC5(CCC5)C4)nc(Cl)nc32)[C@H](O)[C@@H]1O)P(=O)(O)O [Example 123, ((S)-2-(((2R,3S,4R,5R)-5-(6-chloro-4-(spiro[3.3]heptan-2-ylamino)-1H-pyrazolo[3,4-d]pyrimidin-1-yl)-3,4-dihydroxytetrahydrofuran-2-yl)methoxy)-1-hydroxypropan-2-yl)phosphonic acid] |
| ≤ 100 nM | CC(C)(O)COc1nc(NC2CCCC2)c2cnn([C@@H]3O[C@H](COC(CO)(CO)P(=O)(O)O)[C@@H](O)[C@H]3O)c2n1 (racemic) [Example 175, rac-(2-(((2R,3S,4R,5R)-5-(4-(cyclopentylamino)-6-(2-hydroxy-2-methylpropoxy)-1H-pyrazolo[3,4-d]pyrimidin-1-yl)-3,4-dihydroxytetrahydrofuran-2-yl)methoxy)-1,3-dihydroxypropan-2-yl)phosphonic acid] |
| 100 to 1000 nM | N#CC(OC[C@H]1O[C@@H](n2ncc3c(NC4CCCC4)nc(Cl)nc32)[C@H](O)[C@@H]1O)P(=O)(O)O (stereo partly drawn) [Example 2, ((((2R,3S,4R,5R)-5-(6-Chloro-4-(cyclopentylamino)-1H-pyrazolo[3,4-d]pyrimidin-1-yl)-3,4-dihydroxytetrahydrofuran-2-yl)methoxy)(cyano)methyl)phosphonic acid] |
| ≤ 100 nM | O=P(O)(O)[C@](CO)(Cc1nn[nH]n1)OC[C@H]1O[C@@H](n2ncc3c(NC4CCCC4)nc(Cl)nc32)[C@H](O)[C@@H]1O [Example 103, ((S)-2-(((2R,3S,4R,5R)-5-(6-chloro-4-(cyclopentylamino)-1H-pyrazolo[3,4-d]pyrimidin-1-yl)-3,4-dihydroxytetrahydrofuran-2-yl)methoxy)-1-hydroxy-3-(2H-tetrazol-5-yl)propan-2-yl)phosphonic acid] |
| ≤ 100 nM | O=P(O)(O)[C@](CO)(COCC1CC1)OC[C@H]1O[C@@H](n2ncc3c(NC4CCCC4)nc(Cl)nc32)[C@H](O)[C@@H]1O (racemic) [Example 170, rac-((R)-2-(((2R,3S,4R,5R)-5-(6-chloro-4-(cyclopentylamino)-1H-pyrazolo[3,4-d]pyrimidin-1-yl)-3,4-dihydroxytetrahydrofuran-2-yl)methoxy)-1-(cyclopropylmethoxy)-3-hydroxypropan-2-yl)phosphonic acid] |
| ≤ 100 nM | O=P(O)(O)COC[C@H]1O[C@@H](n2nnc3c(NCc4ccccc4Cl)cc(Cl)nc32)[C@H](O)[C@@H]1O [Example 26, ((((2R,3S,4R,5R)-5-(5-chloro-7-((2-chlorobenzyl)amino)-3H-[1,2,3]triazolo[4,5-b]pyridin-3-yl)-3,4-dihydroxytetrahydrofuran-2-yl)methoxy)methyl)phosphonic acid] |
| ≤ 100 nM | C[C@H](Nc1nc(Cl)nc2c1cnn2[C@@H]1O[C@H](COC(C)(CO)P(=O)(O)O)[C@@H](O)[C@H]1O)c1ccc(F)cc1 (mixture of isomers) [Example 183, rac-(2-(((2R,3S,4R,5R)-5-(6-chloro-4-(((S)-1-(4-fluorophenyl)ethyl)amino)-1H-pyrazolo[3,4-d]pyrimidin-1-yl)-3,4-dihydroxytetrahydrofuran-2-yl)methoxy)-1-hydroxypropane-2-yl)phosphonic acid] |
| ≤ 100 nM | O=P(O)(O)COC[C@H]1O[C@@H](n2nnc3c(NCC4CCC4)cc(Cl)nc32)[C@H](O)[C@@H]1O [Example 24, ((((2R,3S,4R,5R)-5-(5-chloro-7-((cyclobutylmethyl)amino)-3H-[1,2,3]triazolo[4,5-b]pyridin-3-yl)-3,4-dihydroxytetrahydrofuran-2-yl)methoxy)methyl)phosphonic acid] |
| ≤ 100 nM | C[C@@H](O)COc1nc(NC2CCCC2)c2cnn([C@@H]3O[C@H](COC(CO)(CO)P(=O)(O)O)[C@@H](O)[C@H]3O)c2n1 (racemic) [Example 191, rac-(2-(((2R,3S,4R,5R)-5-(4-(cyclopentylamino)-6-((R)-2-hydroxypropoxy)-1H-pyrazolo[3,4-d]pyrimidin-1-yl)-3,4-dihydroxytetrahydrofuran-2-yl)methoxy)-1,3-dihydroxypropan-2-yl)phosphonic acid] |
| ≤ 100 nM | COCC(COC)(OC[C@H]1O[C@@H](n2ncc3c(NC4CCC4)nc(Cl)nc32)[C@H](O)[C@@H]1O)P(=O)(O)O (racemic) [Example 174, rac-(2-(((2R,3S,4R,5R)-5-(6-chloro-4-(cyclobutylamino)-1H-pyrazolo[3,4-d]pyrimidin-1-yl)-3,4-dihydroxytetrahydrofuran-2-yl)methoxy)-1,3-dimethoxypropan-2-yl)phosphonic acid] |
| ≤ 100 nM | COCC(C)(OC[C@H]1O[C@H](n2nnc3c(N[C@@H]4CCc5ccccc54)nc(Cl)nc32)[C@H](O)[C@@H]1O)P(=O)(O)O (stereo partly drawn) [Example 154, (2-(((2R,3S,4R,5S)-5-(5-chloro-7-(((R)-2,3-dihydro-1H-inden-1-yl)amino)-3H-[1,2,3]triazolo[4,5-d]pyrimidin-3-yl)-3,4-dihydroxytetrahydrofuran-2-yl)methoxy)-1-methoxypropan-2-yl)phosphonic acid] |
| ≤ 100 nM | C[C@](CO)(OC[C@H]1O[C@@H](n2ncc3c(NC4CCCC4)cc(Cl)nc32)[C@H](O)[C@@H]1O)P(=O)(O)O (racemic) [Example 193, rac-((R)-2-(((2S,3R,4S,5S)-5-(6-chloro-4-(cyclopentylamino)-1H-pyrazolo[3,4-b]pyridin-1-yl)-3,4-dihydroxytetrahydrofuran-2-yl)methoxy)-1-hydroxypropan-2-yl)phosphonic acid] |
| ≤ 100 nM | O=P(O)(O)COC[C@H]1O[C@@H](n2nnc3c(NCC4CC4)cc(Cl)nc32)[C@H](O)[C@@H]1O [Example 21, ((((2R,3S,4R,5R)-5-(5-chloro-7-((cyclopropylmethyl)amino)-3H-[1,2,3]triazolo[4,5-b]pyridin-3-yl)-3,4-dihydroxytetrahydrofuran-2-yl)methoxy)methyl)phosphonic acid] |
| 100 to 1000 nM | Cn1cnc(CC(CO)(OC[C@H]2O[C@@H](n3ncc4c(NC5CCCC5)nc(Cl)nc43)[C@H](O)[C@@H]2O)P(=O)(O)O)c1 (stereo partly drawn) [Example 94, (2-(((2R,3S,4R,5R)-5-(6-chloro-4-(cyclopentylamino)-1H-pyrazolo[3,4-d]pyrimidin-1-yl)-3,4-dihydroxytetrahydrofuran-2-yl)methoxy)-1-hydroxy-3-(1-methyl-1H-imidazol-4-yl)propan-2-yl)phosphonic acid] |
| ≤ 100 nM | O=P(O)(O)C(CO)(CO)OC[C@H]1O[C@@H](n2ncc3c(NC4CCC45CCC5)nc(Cl)nc32)[C@H](O)[C@@H]1O (mixture of isomers) [Example 204, rac-(2-(((2R,3S,4R,5R)-5-(6-chloro-4-(spiro[3.3]heptan-1-ylamino)-1H-pyrazolo[3,4-d]pyrimidin-1-yl)-3,4-dihydroxytetrahydrofuran-2-yl)methoxy)-1,3-dihydroxypropoan-2-yl)phosphonic acid] |
| ≤ 100 nM | COCC(COC)(OC[C@H]1O[C@@H](n2ncc3c(NCC4CC4)nc(Cl)nc32)[C@H](O)[C@@H]1O)P(=O)(O)O [Example 125, (2-(((2R,3S,4R,5R)-5-(6-chloro-4-((cyclopropylmethyl)amino)-1H-pyrazolo[3,4-d]pyrimidin-1-yl)-3,4-dihydroxytetrahydrofuran-2-yl)methoxy)-1,3-dimethoxypropan-2-yl)phosphonic acid] |
